In patent US20240197700A1, “Methods and Compositions for Treating Lysosomal Storage Disorders” (Sanford Health, priority 2021, published 2024):
“Also recorded” adds a separate entry of the source.

System: Cln3^Δex7/8 mice
Assay: SubC burden (immunohistochemistry) in brain of Cln3^Δex7/8 mice
Format: in vivo, mouse
Description: Specific experimental details are included in figure legends. In general, after collection and preparation, MEFs and PNCs were dosed with vehicle or AF38469 (40 nM, 400 nM. or 4 μM) on DIV3 and DIV5. On DIV7, cells were treated with the following dyes: Hoechst 33342 (1:1000 dilution), LysoTrackerT™ Red DND-99 (1:10,000 dilution), fixed, and imaged. Mice were given vehicle or AF38469 (78.125 μg/ml, 3.125 μg/ml, 0.3125 μg/ml or 0.03125 μg/ml equating approximately to 250 μg/mouse/day, 10 μg/mouse/day, 1 μg/mouse/day, and […], respectively, given a mouse's daily water intake of approximately 3.2 ml per day) in drinking water beginning at wean. Body weight was measured bi-weekly, and a force actimeter test was performed on Cln2^R207X mice at 10 weeks of age. Body weight was measured every month for Cln3^Δex7/8 mice. At 11 and 16 weeks of age, respectively, Cln2^R207X and Cln3^Δex7/8 mice along with age matched wild type control mice were CO2 euthanized and intracardially perfused with PBS. Brains were collected and placed on a 1 mm sagittal brain block. Brains were sliced at the midline and 3 mm right of the midline. One hemisphere was fixed in 4% PFA and sectioned at 50 microns on a vibratome. Immunohistochemistry was performed on free-floating sections. For mitochondrial ATP synthase subunit C (SubC), glial fibrillary acidic protein (GFAP), and cluster of differentiation 68 (CD68) immunolabeling, primary antibodies included anti-SubC (Abcam, ab181243; 1:1000), anti-GFAP (Dako, Z0334; 1:5000), anti-CD68 (AbD Serotec, MCA1957; 1:2000), and secondary antibodies included anti-rabbit biotinylated (Vector Labs, BA-1000 1:1000) and anti-rat (Vector Labs, BA-9400 1:1000). Coverslips were mounted on slides using antifade-mounting media and were stored in the dark before imaging. Sections were imaged and analyzed using an Aperio Digital Pathology Slide Scanner (AT2) and associated software. Images were extracted from S1BF of the somatosensory cortex and the VPM/VPL of the thalamus, with multiple images taken of multiple tissues from each animal.
Short-term chronic treatment with AF38469 reduces storage material burden in Cln2^R207X and Cln3^Δex7/8 mice. Beginning at wean, wild type and Cln2^R207X mice were treated with vehicle (0.2408% DMSO) or AF38469 (0.03125 μg/ml, 0.3125 μg/ml, 3.125 μg/ml, 78.125 μg/ml) continuously through the drinking water continuing until sacrifice at 11 weeks. Beginning at wean, wild type and Cln3^Δex7/8 mice were treated with vehicle (0.2408% DMSO) or AF38469 (0.03125 μg/ml, 0.3125 μg/ml, 3.125 μg/ml, 78.125 μg/ml) continuously through the drinking water until sacrifice at 16 weeks. Upon sacrifice, one hemisphere of brain was sectioned at 50 microns on a vibratome; DAB staining immunohistochemistry was then performed using anti-SubC (Abcam, ab181243) anti-rabbit biotinylated (Vector Labs, BA-1000). Sections were imaged and analyzed using an Aperio Digital Pathology Slide Scanner (AT2) and associated software. Images were extracted from S1BF of the somatosensory cortex and the VPM/VPL of the thalamus, key brain regions for Batten disease pathology. Percent area of immunoreactivity were quantified using a threshold analysis in ImageJ™. Statistical analyses were performed using GraphPad Prism™ (v8.4.3; San Diego, CA). […] Increasing concentrations of AF38469 and corresponding genotypes are shown along the x-axis. Nested one-way ANOVA. […]

Row | Compound | Subunit C burden (0.03125 μg/ml, 0.3125 μg/ml in drinking water, somatosensory cortex and VPM/VPL of the thalamus, 16 weeks) | Subunit C burden (3.125 μg/ml in drinking water, somatosensory cortex and VPM/VPL of the thalamus, 16 weeks) | Subunit C burden (3.125 μg/ml, 78.125 μg/ml in drinking water, somatosensory cortex, 16 weeks) | SubC burden (LM11A-31 0.6 mg/mL, VPM/VPL of the thalamus) | Subunit C burden (LM11A-31 0.6 mg/mL, somatosensory cortex (S1BF))
1 | Cc1cccc(NC(=O)c2ccc(C(F)(F)F)cc2C(=O)O)n1 [AF38469, 2-((6-methylpyridin-2-yl)carbamoyl)-5-(trifluoromethyl)benzoic acid] | significantly decreased | significantly decreased | significantly decreased | – | –
2 | CC[C@H](C)[C@H](N)C(=O)NCCN1CCOCC1 [LM11A-31, N-[2-(morpholin-4-yl)ethyl]-L-isoleucinamide] | – | – | – | decrease; also recorded: decreasing trend | increase; also recorded: did not significantly decreased
